≈ marks a conversion by molar mass, not a printed value. Counter-ions that a name gives are not always drawn.
Assays:
Assay type in all cases: cell-based
S. aureus = test: MIC S. aureus (standard MIC assay modified by inclusion of cyclodextrin); settings: Staphylococcus aureus
Procedure: (§1) Compounds of the present invention were assayed for antibacterial activity against a range of pathogenic organisms (strains of S aureus, S pneumoniae, E faecalis, H influenzae and M catarrhalis) in a standard MIC assay modified by the inclusion of cyclodextrin, to assist with solubility.

S. pneumo = test: MIC S. pneumo (standard MIC assay modified by inclusion of cyclodextrin); settings: Streptococcus pneumoniae
Procedure: as §1

[1] = system: S. aureus, S. pneumoniae, and E. faecalis; test: MIC against some strains of gram positive pathogens
Procedure: as §1

H. influenzae = test: MIC H. influenzae (standard MIC assay modified by inclusion of cyclodextrin); settings: Haemophilus influenzae
Procedure: as §1

[2] = system: M catarrhalis and H. influenzae; test: MIC against some strains of gram negative pathogens; settings: Haemophilus influenzae
Procedure: as §1

[3] = prior art thiophenes of U.S. Pat. No. 6,320,051

| Structure (SMILES) | MIC (S. aureus) | MIC (S. pneumo) | MIC [1] | MIC (H. influenzae) | MIC [2] | MIC (S. aureus; [3]) | MIC (S. pneumo; [3]) | MIC (H. influenzae; [3]) |
| --- | --- | --- | --- | --- | --- | --- | --- | --- |
| Cc1c(CNCCCNc2cc(=O)c3ccccc3[nH]2)sc(Br)c1Br [Example 1, N-(4,5-Dibromo-3-methylthiophen-2-ylmethyl)-N′-(1H-quinolin-4-one)propane-1,3-diamine] | 0.25 µg/mL (≈ 0.515 µM) | 0.06 µg/mL (≈ 0.124 µM) | 0.06 to 0.5 µg/mL (≈ 0.124 to 1.03 µM) | 32 µg/mL (≈ 65.9 µM) | – | – | – | – |
| Cc1c(CNCCCNc2nc3nnccc3[nH]2)sc(C(F)(F)F)c1Br [Example 12, N-(4-bromo-3-methyl-5-trifluoromethylthiophen-2-ylmethyl)-N′-(5H-imidazo[4,5-c]pyridazin-6-yl)propane-1,3-diamine dihydrochloride] | 0.5 µg/mL | 2 µg/mL | 0.06 to 0.5 µg/mL | 0.25 µg/mL | 0.13 to 8 µg/mL | – | – | – |
| Cc1c(CNCCCNc2nc3cscc3[nH]2)sc(C(F)(F)F)c1Br [Example 20, N-(4-Bromo-3-methyl-5-trifluoromethylthiophen-2-ylmethyl)-N′-(1H-thieno[3,4-d]imidazol-2-yl)propane-1,3-diamine] | 0.25 µg/mL (≈ 0.551 µM) | 0.5 µg/mL (≈ 1.1 µM) | 0.06 to 0.5 µg/mL (≈ 0.132 to 1.1 µM) | 16 µg/mL (≈ 35.3 µM) | – | – | – | – |
| CC#Cc1c(CNCCCNc2cc(=O)c3ccccc3[nH]2)sc(CC)c1Br [Example 9, N-(4-bromo-3-(1-propynyl)-5-ethylthiophen-2-ylmethyl)-N′-(1H-quinolin-4-one)propane-1,3-diamine] | 0.06 µg/mL (≈ 0.131 µM) | 0.06 µg/mL (≈ 0.131 µM) | 0.06 to 0.5 µg/mL (≈ 0.131 to 1.09 µM) | 64 µg/mL (≈ 140 µM) | – | – | – | – |
| O=c1cc(NC[C@H]2CCC[C@@H]2NCc2cc(Br)c(Br)s2)[nH]c2ccccc12 [Example 74] | – | – | – | – | – | 2 µg/mL (≈ 3.91 µM) | 2 µg/mL (≈ 3.91 µM) | > 64 µg/mL |
| C=C(F)c1sc(CNCCCNc2nc3nnccc3[nH]2)c(C)c1Br [Example 14, N-(4-bromo-5-(1-fluorovinyl)-3-methylthiophen-2-ylmethyl)-N′-(5H-imidazo[4,5-c]pyridazin-6-yl)propane-1,3-diamine dihydrochloride] | 0.25 µg/mL | 0.25 µg/mL | 0.06 to 0.5 µg/mL | 0.13 µg/mL | 0.13 to 8 µg/mL | – | – | – |
| C=C(F)c1sc(CNCCCNc2cc(=O)c3ccccc3[nH]2)c(C)c1Br [Example 4, N-(4-bromo-5-(1-fluorovinyl)-3-methylthiophen-2-ylmethyl)-N′-(1H-quinolin-4-one)propane-1,3-diamine] | 0.06 µg/mL (≈ 0.133 µM) | 0.06 µg/mL (≈ 0.133 µM) | 0.06 to 0.5 µg/mL (≈ 0.133 to 1.11 µM) | 4 µg/mL (≈ 8.88 µM) | 0.13 to 8 µg/mL (≈ 0.289 to 17.8 µM) | – | – | – |
| Cc1c(CNCCCNc2cc(=O)c3ccccc3[nH]2)sc(C(F)F)c1Br [Example 7, N-(4-bromo-5-difluoromethyl-3-methylthiophen-2-ylmethyl)-N′-(1H-quinolin-4-one)propane-1,3-diamine] | 1 µg/mL (≈ 2.19 µM) | 1 µg/mL (≈ 2.19 µM) | 1 to 2 µg/mL (≈ 2.19 to 4.38 µM) | 64 µg/mL (≈ 140 µM) | – | – | – | – |
| CC=Cc1c(CNCCCNc2cc(=O)c3ccccc3[nH]2)sc(CC)c1Br [Example 10, N-(4-bromo-3-(1-propenyl)-5-ethylthiophen-2-ylmethyl)-N′-(1H-quinolin-4-one)propane-1,3-diamine] | 0.06 µg/mL (≈ 0.13 µM) | 0.25 µg/mL (≈ 0.543 µM) | 0.06 to 0.5 µg/mL (≈ 0.13 to 1.09 µM) | 8 µg/mL (≈ 17.4 µM) | 0.13 to 8 µg/mL (≈ 0.282 to 17.4 µM) | – | – | – |
| Cc1c(CNCCCNc2cc(=O)c3ccccc3[nH]2)sc(C2CC2)c1Br [Example 6, N-(4-bromo-5-cyclopropyl-3-methylthiophen-2-ylmethyl)-N′-(1H-quinolin-4-one)propane-1,3-diamine] | 0.06 µg/mL (≈ 0.134 µM) | 0.13 µg/mL (≈ 0.291 µM) | 0.06 to 0.5 µg/mL (≈ 0.134 to 1.12 µM) | 32 µg/mL (≈ 71.7 µM) | – | – | – | – |
| O=c1cc(NCCCNCc2cc(Br)c(Br)s2)[nH]c2ccccc12 [Example 37] | – | – | – | – | – | 8 µg/mL (≈ 17 µM) | 1 µg/mL (≈ 2.12 µM) | > 64 µg/mL |
| Cc1c(CNCCCNc2cc(=O)c3ccccc3[nH]2)sc(C(F)(F)F)c1Br [Example 8, N-(4-bromo-3-methyl-5-trifluoromethylthiophen-2-ylmethyl)-N′-(1H-quinolin-4-one)propane-1,3-diamine] | 0.13 µg/mL (≈ 0.274 µM) | 0.13 µg/mL (≈ 0.274 µM) | 0.06 to 0.5 µg/mL (≈ 0.126 to 1.05 µM) | 64 µg/mL (≈ 135 µM) | – | – | – | – |
| O=c1cc(NCCCNCc2sc(Br)c(Br)c2Br)[nH]c2ccccc12 [Example 65] | – | – | – | – | – | 2 µg/mL (≈ 3.64 µM) | 1 µg/mL (≈ 1.82 µM) | > 64 µg/mL |
| Cc1c(CNCCCNc2nc3ccccc3[nH]2)sc(C(F)F)c1Br [Example 23, N-(4-bromo-5-difluoromethyl-3-methylthiophen-2-ylmethyl)-N′-(1H-benzimidazole)propane-1,3-diamine] | 1 µg/mL (≈ 2.33 µM) | 4 µg/mL (≈ 9.32 µM) | 1 to 2 µg/mL (≈ 2.33 to 4.66 µM) | 8 µg/mL (≈ 18.6 µM) | 0.13 to 8 µg/mL (≈ 0.303 to 18.6 µM) | – | – | – |
| Cc1c(CNCCCNc2nc3ncccc3[nH]2)sc(C(F)F)c1Br [Example 16, N-(4-bromo-5-difluoromethyl-3-methylthiophen-2-ylmethyl)-N′-(1H-imidazo[4,5-b]pyridin-2-yl)-propane-1,3-diamine] | 0.5 µg/mL (≈ 1.16 µM) | 4 µg/mL (≈ 9.3 µM) | 0.06 to 0.5 µg/mL (≈ 0.139 to 1.16 µM) | 64 µg/mL (≈ 149 µM) | – | – | – | – |
| C=Cc1sc(CNCCCNc2cc(=O)c3ccccc3[nH]2)c(C)c1Br [Example 3, N-(4-bromo-3-methyl-5-vinylthiophen-2-ylmethyl)-N′-(1H-quinolin-4-one)propane-1,3-diamine] | 0.06 µg/mL (≈ 0.139 µM) | 0.06 µg/mL (≈ 0.139 µM) | 0.06 to 0.5 µg/mL (≈ 0.139 to 1.16 µM) | 16 µg/mL (≈ 37 µM) | – | – | – | – |
| Cc1c(CNCCCNc2nc3ccccc3[nH]2)sc(C(F)(F)F)c1Br [Example 24, N-(4-bromo-3-methyl-5-trifluoromethylthiophen-2-ylmethyl)-N′-(1H-benzimidazole)propane-1,3-diamine] | 0.5 µg/mL (≈ 1.12 µM) | 1 µg/mL (≈ 2.24 µM) | 0.06 to 0.5 µg/mL (≈ 0.134 to 1.12 µM) | 8 µg/mL (≈ 17.9 µM) | 0.13 to 8 µg/mL (≈ 0.291 to 17.9 µM) | – | – | – |
| C#Cc1sc(CNCCCNc2nc3nnccc3[nH]2)c(C)c1Br [Example 15, N-(4-bromo-5-ethynyl-3-methylthiophen-2-ylmethyl)-N′-(5H-imidazo[4,5-c]pyridazin-6-yl)propane-1,3-diamine dihydrochloride] | 1 µg/mL | 0.5 µg/mL | 1 to 2 µg/mL | 0.5 µg/mL | 0.13 to 8 µg/mL | – | – | – |
| Cc1c(CNCCCNc2nc3nnccc3[nH]2)sc(C2CC2)c1Br [Example 11, N-(4-Bromo-5-cyclopropyl-3-methylthiophen-2-ylmethyl)-N′-(5H-imidazo[4,5-c]pyridazin-6-yl)propane-1,3-diamine dihydrochloride] | 2 µg/mL | 8 µg/mL | 1 to 2 µg/mL | 2 µg/mL | 0.13 to 8 µg/mL | – | – | – |
| CCc1sc(CNCCCNc2cc(=O)c3ccccc3[nH]2)c(C)c1Br [Example 5, N-(4-bromo-5-ethyl-3-methylthiophen-2-ylmethyl)-N′-(1H-quinolin-4-one)propane-1,3-diamine] | 0.06 µg/mL (≈ 0.138 µM) | 0.25 µg/mL (≈ 0.576 µM) | 0.06 to 0.5 µg/mL (≈ 0.138 to 1.15 µM) | 64 µg/mL (≈ 147 µM) | – | – | – | – |
| Cc1c(CNCCCNc2nc3cscc3[nH]2)sc(C(F)F)c1Br [Example 19, N-(4-Bromo-5-difluoromethyl-3-methylthiophen-2-ylmethyl)-N′-(1H-thieno[3,4-d]imidazol-2-yl)propane-1,3-diamine] | 0.13 µg/mL (≈ 0.299 µM) | 0.5 µg/mL (≈ 1.15 µM) | 0.06 to 0.5 µg/mL (≈ 0.138 to 1.15 µM) | 16 µg/mL (≈ 36.8 µM) | – | – | – | – |
| C#Cc1sc(CNCCCNc2cc(=O)c3ccccc3[nH]2)c(C)c1Br [Example 2, N-(4-bromo-5-ethynyl-3-methylthiophen-2-ylmethyl)-N′-(1H-quinolin-4-one)propane-1,3-diamine] | 0.13 µg/mL (≈ 0.302 µM) | 0.06 µg/mL (≈ 0.139 µM) | 0.06 to 0.5 µg/mL (≈ 0.139 to 1.16 µM) | > 64 µg/mL | – | – | – | – |
